From the NIST ThermoML archive (doi:10.1021/je700287u)
± gives the expanded uncertainty stated by the source.

Experiment: xn = mol fraction of the nth substance listed
Conditions: Liquid

CN(CCO)CCO [N-methyldiethanolamine] + O
Conditions | mass density [kg/m3]
352.84 K, 15989 kPa, x1 = 0.1302 | 1010.4 ± 0.4
352.84 K, 16976 kPa, x1 = 0.1302 | 1010.8 ± 0.4
352.84 K, 17977 kPa, x1 = 0.1302 | 1011.2 ± 0.4
352.84 K, 18979 kPa, x1 = 0.1302 | 1011.6 ± 0.4
352.84 K, 19995 kPa, x1 = 0.1302 | 1012 ± 0.4
352.85 K, 1004 kPa, x1 = 0.0369 | 983.9 ± 0.4
352.85 K, 2037 kPa, x1 = 0.0369 | 984.4 ± 0.4
352.85 K, 2962 kPa, x1 = 0.0369 | 984.8 ± 0.4
352.85 K, 4014 kPa, x1 = 0.0369 | 985.2 ± 0.4
352.85 K, 4994 kPa, x1 = 0.0369 | 985.6 ± 0.4
352.85 K, 6034 kPa, x1 = 0.0369 | 986.1 ± 0.4
352.85 K, 6999 kPa, x1 = 0.0369 | 986.5 ± 0.4
352.85 K, 8019 kPa, x1 = 0.0369 | 987 ± 0.4
352.85 K, 8987 kPa, x1 = 0.0369 | 987.3 ± 0.4
352.85 K, 9992 kPa, x1 = 0.0369 | 987.8 ± 0.4
352.85 K, 10987 kPa, x1 = 0.0369 | 988.2 ± 0.4
352.85 K, 11994 kPa, x1 = 0.0369 | 988.6 ± 0.4
352.85 K, 12978 kPa, x1 = 0.0369 | 989.1 ± 0.4
352.85 K, 13987 kPa, x1 = 0.0369 | 989.4 ± 0.4
352.85 K, 14998 kPa, x1 = 0.0369 | 989.9 ± 0.4
352.85 K, 15956 kPa, x1 = 0.0369 | 990.2 ± 0.4
352.85 K, 16987 kPa, x1 = 0.0369 | 990.7 ± 0.4
352.85 K, 17991 kPa, x1 = 0.0369 | 991.1 ± 0.4
352.85 K, 18986 kPa, x1 = 0.0369 | 991.5 ± 0.4
352.85 K, 19988 kPa, x1 = 0.0369 | 991.9 ± 0.4
352.88 K, 1037 kPa, x1 = 0.0893 | 998.6 ± 0.4
352.88 K, 2010 kPa, x1 = 0.0893 | 999 ± 0.4
352.88 K, 3005 kPa, x1 = 0.0893 | 999.5 ± 0.4
352.88 K, 4010 kPa, x1 = 0.0893 | 999.9 ± 0.4
352.88 K, 4999 kPa, x1 = 0.0893 | 1000.3 ± 0.4
352.88 K, 5993 kPa, x1 = 0.0893 | 1000.7 ± 0.4
352.88 K, 7000 kPa, x1 = 0.0893 | 1001.1 ± 0.4
352.88 K, 7998 kPa, x1 = 0.0893 | 1001.6 ± 0.4
352.88 K, 8982 kPa, x1 = 0.0893 | 1002 ± 0.4
352.88 K, 9977 kPa, x1 = 0.0893 | 1002.4 ± 0.4
352.88 K, 10995 kPa, x1 = 0.0893 | 1002.8 ± 0.4
352.88 K, 11987 kPa, x1 = 0.0893 | 1003.3 ± 0.4
352.88 K, 12999 kPa, x1 = 0.0893 | 1003.7 ± 0.4
352.88 K, 13990 kPa, x1 = 0.0893 | 1004.1 ± 0.4
352.88 K, 14969 kPa, x1 = 0.0893 | 1004.5 ± 0.4
352.88 K, 15990 kPa, x1 = 0.0893 | 1004.9 ± 0.4
352.88 K, 16991 kPa, x1 = 0.0893 | 1005.3 ± 0.4
352.88 K, 18009 kPa, x1 = 0.0893 | 1005.8 ± 0.4
352.88 K, 18994 kPa, x1 = 0.0893 | 1006.2 ± 0.4
352.88 K, 20015 kPa, x1 = 0.0893 | 1006.6 ± 0.4
362.71 K, 1012 kPa, x1 = 0.0369 | 977.3 ± 0.4
362.71 K, 2054 kPa, x1 = 0.0369 | 977.8 ± 0.4
362.71 K, 3004 kPa, x1 = 0.0369 | 978.2 ± 0.4
362.71 K, 3981 kPa, x1 = 0.0369 | 978.6 ± 0.4
362.71 K, 4997 kPa, x1 = 0.0369 | 979.1 ± 0.4
362.71 K, 6006 kPa, x1 = 0.0369 | 979.5 ± 0.4
362.71 K, 7005 kPa, x1 = 0.0369 | 979.9 ± 0.4
362.71 K, 7962 kPa, x1 = 0.0369 | 980.3 ± 0.4
362.71 K, 8999 kPa, x1 = 0.0369 | 980.8 ± 0.4
362.71 K, 9999 kPa, x1 = 0.0369 | 981.2 ± 0.4
362.71 K, 10997 kPa, x1 = 0.0369 | 981.6 ± 0.4
362.71 K, 11979 kPa, x1 = 0.0369 | 982 ± 0.4
362.71 K, 12988 kPa, x1 = 0.0369 | 982.5 ± 0.4
362.71 K, 13990 kPa, x1 = 0.0369 | 982.9 ± 0.4
362.71 K, 14982 kPa, x1 = 0.0369 | 983.4 ± 0.4
362.71 K, 15982 kPa, x1 = 0.0369 | 983.8 ± 0.4
362.71 K, 16992 kPa, x1 = 0.0369 | 984.2 ± 0.4
362.71 K, 17958 kPa, x1 = 0.0369 | 984.6 ± 0.4
362.71 K, 18984 kPa, x1 = 0.0369 | 985.1 ± 0.4
362.71 K, 19984 kPa, x1 = 0.0369 | 985.5 ± 0.4
362.72 K, 1043 kPa, x1 = 0.1302 | 995.9 ± 0.4
362.72 K, 2117 kPa, x1 = 0.1302 | 996.4 ± 0.4
362.72 K, 3008 kPa, x1 = 0.1302 | 996.8 ± 0.4
362.72 K, 3995 kPa, x1 = 0.1302 | 997.3 ± 0.4
362.72 K, 5002 kPa, x1 = 0.1302 | 997.8 ± 0.4
362.72 K, 5994 kPa, x1 = 0.1302 | 998.2 ± 0.4
362.72 K, 6994 kPa, x1 = 0.1302 | 998.6 ± 0.4
362.72 K, 8003 kPa, x1 = 0.1302 | 999.1 ± 0.4
362.72 K, 8988 kPa, x1 = 0.1302 | 999.6 ± 0.4
362.72 K, 9991 kPa, x1 = 0.1302 | 1000 ± 0.4
362.72 K, 11003 kPa, x1 = 0.1302 | 1000.4 ± 0.4
362.72 K, 12036 kPa, x1 = 0.1302 | 1000.9 ± 0.4
362.72 K, 13005 kPa, x1 = 0.1302 | 1001.3 ± 0.4
362.72 K, 13983 kPa, x1 = 0.1302 | 1001.7 ± 0.4
362.72 K, 14984 kPa, x1 = 0.1302 | 1002.2 ± 0.4
362.72 K, 15981 kPa, x1 = 0.1302 | 1002.6 ± 0.4
362.72 K, 16993 kPa, x1 = 0.1302 | 1003 ± 0.4
362.72 K, 17988 kPa, x1 = 0.1302 | 1003.5 ± 0.4
362.72 K, 18994 kPa, x1 = 0.1302 | 1003.9 ± 0.4
362.72 K, 19995 kPa, x1 = 0.1302 | 1004.4 ± 0.4
362.75 K, 993 kPa, x1 = 0.0893 | 990.9 ± 0.4
362.75 K, 2025 kPa, x1 = 0.0893 | 991.3 ± 0.4
362.75 K, 3013 kPa, x1 = 0.0893 | 991.8 ± 0.4
362.75 K, 3995 kPa, x1 = 0.0893 | 992.2 ± 0.4
362.75 K, 5018 kPa, x1 = 0.0893 | 992.7 ± 0.4
362.75 K, 6003 kPa, x1 = 0.0893 | 993.1 ± 0.4
362.75 K, 6988 kPa, x1 = 0.0893 | 993.6 ± 0.4
362.75 K, 8002 kPa, x1 = 0.0893 | 994 ± 0.4
362.75 K, 8996 kPa, x1 = 0.0893 | 994.4 ± 0.4
362.75 K, 10040 kPa, x1 = 0.0893 | 994.9 ± 0.4
362.75 K, 11000 kPa, x1 = 0.0893 | 995.3 ± 0.4
362.75 K, 11988 kPa, x1 = 0.0893 | 995.7 ± 0.4
362.75 K, 12992 kPa, x1 = 0.0893 | 996.1 ± 0.4
362.75 K, 13990 kPa, x1 = 0.0893 | 996.6 ± 0.4
362.75 K, 14990 kPa, x1 = 0.0893 | 997 ± 0.4
362.75 K, 15993 kPa, x1 = 0.0893 | 997.5 ± 0.4
362.75 K, 17004 kPa, x1 = 0.0893 | 997.9 ± 0.4
362.75 K, 17984 kPa, x1 = 0.0893 | 998.3 ± 0.4
362.75 K, 19022 kPa, x1 = 0.0893 | 998.7 ± 0.4
362.75 K, 19984 kPa, x1 = 0.0893 | 999.2 ± 0.4
